# Laboratory results taken from US20090124650A1 (priority 2007, published 2009).
# What was measured:
# [1] = Study 5: controlled release 40 mg vs immediate release 4x10 mg, fed and fasting; type: in vivo, human; details: food effect
# Text: Subjects randomized to Treatment 5A and Treatment 5C, as described below, were in a fasted state following a 10-hour overnight fast. […] There was a 14-day washout interval between the four dose administrations. The subjects were confined to the clinic during each study period. Subject assigned to receive Treatment 5A and Treatment 5B were discharged from the clinic on Day 3 following the 48-hour procedures, and subjects assigned to receive Treatment 5C and Treatment 5D were discharged from the clinic on Day 2 following the 36-hour procedures. On Day 1 of each study period the subjects received one of four treatments:
# Blood samples (7 ml) were collected during each study period at the 0 hour (predose), and at 0.25, 0.5, 0.75, 1.0, 1.5, 2, 3, 4, 5, 6, 8, 10, 12, 24, 36, 48, 60, and 72 hours post-dose (19 samples) for subjects randomized to all Treatments.
# [2] = In vivo ethanol study: oxymorphone 40 mg ER tablets with 240 mL of 40%, 20%, 4%, 0% ethanol; design: species or system human
# Description: The study design was a randomized, open-label, single-dose, four-period crossover in 28 subjects. […] Subjects were fasted overnight for at least 8 hours prior to dosing. Water was allowed ad lib except from 1 hour before dosing until 1 hour after dosing. A standardized meal was served 4 hours and 10 hours after dosing.
# A) 40% ethanol B) 20% ethanol C) 4% ethanol D) 0% ethanol
# Serial blood samples were obtained from 0 to 48 hours after dosing. Plasma samples were assayed for oxymorphone. Pharmacokinetic parameters for oxymorphone were determined using non-compartmental methods. […] Any treatment in which a subject vomited during the dosing interval (0-12 hours) was excluded from the primary pharmacokinetic analysis.
# [3] = in vivo; cited from earlier work
# [4] = Bioavailability in elderly, hepatically and renally impaired patients
# [5] = elderly patients (65 years old or older)
smiles,measurement,setting,value
"CN1CC[C@]23c4c5ccc(O)c4O[C@H]2C(=O)CC[C@@]3(O)[C@H]1C5 [oxymorphone, 14-hydroxydihydromorphinone]",Cmax greater with a meal than without,[1],50%
same,AUC change with ethanol,[2]; 240 mL of 20% or 4% ethanol concomitantly,essentially unchanged
same,"Cmax increase in individual subjects, up to",[2]; 240 mL of 40% ethanol,up to 270%
same,AUC change with ethanol,[2]; 240 mL of 40% ethanol concomitantly,not statistically significantly changed
same,Cmax increase (average) vs 0% ethanol,"[2]; 240 mL of 40% ethanol, excluding subjects who vomited",70%
same,oral bioavailability,[3],about 10%
same,increase in Cmax,[4]; [5],about 1.5 fold
same,increase in bioavailability,[4]; [5],about 1.4 fold
same,bioavailability,[4]; hepatically impaired patients,increased
same,bioavailability,[4]; renally impaired patients,increased
